Assay results: a melting point compilation (Tetko et al.; mined from patent text by program, amines drawn as free bases though some values may be those of a salt)

Question: With `CCCCCCN(CCCCCC)CC1CCN(C(=O)Oc2ccc(Oc3ccccc3)cc2)CC1` as the molecule, how does the melting point read?
Answer: 46 to 47 °C

Question: With `CCCCCc1ccc(CCc2ccc(-c3ccc(CC)cc3F)cc2)cc1` as the molecule, how does the melting point read?
Answer: 40 °C

Question: With `CC(=O)CCC1(C(N)=O)c2ccccc2-c2ccccc21` as the molecule, how does the melting point read?
Answer: 125 to 128 °C

Question: Which melting point does the source give for `COc1ccc(-n2nc(Sc3ccc(Cl)c(Cl)c3)c(C)c(C#N)c2=O)cc1` here?
Answer: 168 to 171 °C

Question: For `COCc1c(C(=O)OC(C)C)ncc2[nH]c3ccc(I)cc3c12`, which melting point is on record?
Answer: 233 to 235 °C

Question: Which melting point does the source give for `O=C(O)c1c(O)ccc2ccccc12` here?
Answer: 218 °C

Question: Which melting point does the source give for `CC1(C)CC(=O)C2=C(C1)NC(c1cccnc1)=NC2c1ccc(F)cc1Cl` (stereo unspecified) here?
Answer: 186 to 187 °C

Question: With `CNC(=O)c1ccccc1Nc1nc(Nc2ccc3c(c2)CCN(C(C)C)CC3)ncc1Cl` as the molecule, how does the melting point read?
Answer: 140 to 158 °C

Question: For `COC(=O)c1ccc(-n2cc(-c3ccc4c(c3)C(C)(C)CCC4(C)C)cn2)cc1`, which melting point is on record?
Answer: 229 to 232 °C

Question: With `O=[N+]([O-])c1c(Br)nn(Cc2ccccc2)c1NCc1ccccc1` as the molecule, how does the melting point read?
Answer: 103 °C

Question: For `CC(=O)c1cccc(C)c1NC(=O)CBr`, which melting point is on record?
Answer: 97 to 100 °C

Question: Which melting point does the source give for `COc1ccc(C2=NN(c3ccc(S(N)(=O)=O)cc3)C(=O)[C@H]3CC=CC[C@@H]23)cc1OC` (relative stereo) here?
Answer: 181 to 183 °C

Question: Which melting point does the source give for `CC(=O)Nc1cc2c(cc1[N+](=O)[O-])OC(C)(C)C1OC21` (stereo unspecified) here?
Answer: 156 to 158 °C

Question: For `Cc1c(Br)sc(N2C(=O)c3ccccc3C2=O)c1C(=O)c1ccc(Cl)cc1`, which melting point is on record?
Answer: 194 to 195 °C

Question: With `CC(C)N(Cc1ccc(Cl)cc1)C(=O)Nc1ccccc1` as the molecule, how does the melting point read?
Answer: 109 to 111 °C

Question: With `O=C(CNC(=O)OCc1ccc([N+](=O)[O-])cc1)Nc1ccc(C(=O)OCI)cc1` as the molecule, how does the melting point read?
Answer: 162 to 164 °C

Question: Which melting point does the source give for `Cc1ccc(Br)cc1Cn1c(C(F)F)nn(C)c1=O` here?
Answer: 108 °C

Question: With `N#Cc1cc(Cc2ccccc2)cc(-c2cccc([N+](=O)[O-])c2)c1O` as the molecule, how does the melting point read?
Answer: 148 to 149 °C

Question: For `COc1cc(CON=C(CCC(=O)O)c2ccccc2)ccc1OCc1nc(-c2ccccc2)oc1C`, which melting point is on record?
Answer: 134 to 135 °C

Question: Which melting point does the source give for `Nc1cc2c(cc1Cl)C(=O)C1(CC1)O2` here?
Answer: 201 °C

Question: For `CCc1ccc(CCOc2cccc(NC3SC(=O)NC3=O)c2)nc1` (stereo unspecified), which melting point is on record?
Answer: 140 to 142 °C

Question: For `OC(COc1ccc(F)cc1)CN1CCC(O)(c2ccc(Cl)cc2)CC1` (stereo unspecified), which melting point is on record?
Answer: 103 to 105 °C

Question: For `O=S(=O)(c1ccc2ccccc2c1)N1C[C@H](O)C[C@H]1COCc1ccccc1`, which melting point is on record?
Answer: 124 to 126 °C

Question: Which melting point does the source give for `N#Cc1cc(NC(=O)c2ccn(-c3ccc(F)cc3)c2)ccc1N1CCCCC1` here?
Answer: 195 to 196 °C

Question: For `COc1cc(COc2nn(-c3ccccc3)cc2/C=C/C(=O)O)ccc1OCc1nc(-c2ccco2)oc1C`, which melting point is on record?
Answer: 204 to 205 °C

Question: For `Cc1ccc(NCc2ccc(/C=C/C(=O)NO)cc2)cc1Nc1nccc(-c2cccnc2)n1`, which melting point is on record?
Answer: 201 to 205 °C

Question: For `O=C1Cc2ccccc2C(c2ccccc2Cl)N1` (stereo unspecified), which melting point is on record?
Answer: 180 to 182 °C

Question: With `CC(O)COc1c2ccccc2c(C=O)c2ccccc12` (stereo unspecified) as the molecule, how does the melting point read?
Answer: 84 to 86 °C

Question: For `N=C(Nc1ccccc1-c1ccccc1)N1CCCC(O)C1` (stereo unspecified), which melting point is on record?
Answer: 144 to 145 °C

Question: Which melting point does the source give for `CC(=O)NC[C@H]1CN(c2ccc(N3CCC(O)(C(N)=O)CC3)c(F)c2)C(=O)O1` here?
Answer: 238 to 240 °C

Question: With `O=C(O)C1CSC(c2cc([N+](=O)[O-])ccc2OCCO[N+](=O)[O-])N1` (stereo unspecified) as the molecule, how does the melting point read?
Answer: 99 to 101 °C

Question: For `CCOC(=O)C=C(C(=O)OCC)c1ccc(C(Br)Br)cc1`, which melting point is on record?
Answer: 89 to 92.5 °C

Question: For `CS(=O)(=O)c1c(C(=O)NN=Cc2nccs2)[nH]c2ccccc12`, which melting point is on record?
Answer: > 280 °C

Question: Which melting point does the source give for `O=[N+]([O-])c1c(Br)nn(Cc2ccc(Cl)cc2)c1Br` here?
Answer: 109 °C

Question: Which melting point does the source give for `Cc1ccc(=O)n(-c2cc(-c3ccnc(Nc4cccc(Cl)c4)n3)ccn2)n1` here?
Answer: 187 to 189 °C

Question: Which melting point does the source give for `CCOc1c(C(C)=O)cnc2c1cnn2Cc1ccco1` here?
Answer: 139 to 141 °C

Question: Which melting point does the source give for `NC(=O)C(F)(F)C1(c2ccc(Cl)cc2Cl)CO1` (stereo unspecified) here?
Answer: 100 to 101 °C

Question: With `NC(=O)c1cccc2nc3n(c12)CCCN3c1ccc(Cl)cc1Cl` as the molecule, how does the melting point read?
Answer: 198 to 200 °C

Question: For `CSCC[C@H](NC(=O)c1ccc(/C=C(/Cn2ccnc2)c2ccc(F)cc2)cc1)C(=O)O`, which melting point is on record?
Answer: 106 °C

Question: Which melting point does the source give for `CCCCCCCCCCCCCCCC1CCCC(c2ccc(O)cc2)(c2ccc(O)cc2)C1` (stereo unspecified) here?
Answer: 104 °C

Question: Which melting point does the source give for `C=CC(=O)Oc1ccc(CNS(C)(=O)=O)cc1` here?
Answer: 112 to 115 °C

Question: With `C#CCOC(=O)C1=C(C)NC(C)=C(C(=O)OCC)C1c1cccc([N+](=O)[O-])c1` (stereo unspecified) as the molecule, how does the melting point read?
Answer: 132 to 133 °C

Question: Which melting point does the source give for `CN(c1cccc(C=C2c3ccccc3CCc3ccccc32)c1)S(C)(=O)=O` here?
Answer: 124 °C

Question: Which melting point does the source give for `COc1cccc([C@H]2O[C@H](CC(=O)Nc3nc(C)c(C(=O)OC(C)(C)C)s3)C(=O)N(CC(C)(C)COC(C)=O)c3ccc(Cl)cc32)c1OC` here?
Answer: 211 to 213 °C

Question: Which melting point does the source give for `COc1cc(C(=O)c2c(F)cccc2F)ccc1O` here?
Answer: 147 to 149 °C

Question: Which melting point does the source give for `CCCn1c(COCC)nc2c(N)nc3ccc(OCCCN4CCCC4=O)cc3c21` here?
Answer: 188 to 190 °C

Question: For `O=C(c1ccc(O)cc1)N1CCN(CC(O)Cn2c3ccccc3c3ccccc32)CC1` (stereo unspecified), which melting point is on record?
Answer: 184 °C

Question: Which melting point does the source give for `COc1ccc2c(c1)C1(CCCC1)C(O)(CC#N)CC2` (stereo unspecified) here?
Answer: 126 to 127 °C

Question: For `CCNC(=O)c1ccc(COC(=O)c2ccc(OC)c(C(C)(C)C)c2)cc1`, which melting point is on record?
Answer: 107 to 108 °C

Question: Which melting point does the source give for `NS(=O)(=O)c1ccc(N2CCN(Cc3ccc4c(c3)NC(=O)CO4)CC2)cc1` here?
Answer: 150 to 153 °C

Question: For `CC(C)[C@H](NCc1ccc(I)cc1)C(=O)O`, which melting point is on record?
Answer: 256 to 258 °C
